IC50 data for 9 molecules are collected here from patent US8445510B2, “Fused bicyclic kinase inhibitors” (OSI Pharmaceuticals, LLC, priority 2011, dated 2013).

The structures appear in SMILES notation.

Holding throughout (assay type): cell-based
One test concerns Karpas-299 cells. Put plainly: Karpas-299 cell proliferation assay (CellTiter-Glo). The note with it: Homo sapiens, 72 h; Karpas-299 cell line (NPM-ALK); 3 days incubation; at least duplicate experiments; read-out: Prolif. IC50. As to the method:
The effect of inhibitors on the proliferation of Karpas-299 cells (DSMZ no. ACC 31) was determined using the following protocol. Karpas-299 cells were plated in 96-well white tissue culture treated plates (Corning 3917) in growth medium (RPMI, 10% FCS) at a density of 5000 cells/well in a total volume of 135 μL and incubated at 37° C., 5% CO2, 95% humidity overnight. The following day, one-tenth volume of a 10× concentration of compounds was added to the wells in an 8-point dilution series. Compounds were serially diluted (1:4) in DMSO from a 10 mM stock solution prior to dilution in growth media to the 10× working concentrations (5% DMSO). Final concentration of DMSO in compound-treated wells was 0.5%. Control wells containing growth media or growth media/0.5% DMSO were included in all test plates. […] Once the compounds were added to the cells, plates were incubated for 3 days at 37° C., 5% CO2 at 95% humidity. After 72 hours, all cells and reagents were equilibrated to room temperature and 15 μL of CellTiter-Glo reagent (Promega # G7573) was added to each well. Plates were shaken on a platform for 10 minutes at room temperature prior to reading luminescence. The value of the signal of the control wells was set as 100% growth and growth inhibition was expressed as percent of control. IC50 values were determined from the percent of control data using a standard four-parameter curve fit equation.
The IC50 values of exemplary compounds of the present invention determined in a cell proliferation assay using the Karpas-299 cell line according to the procedures described herein in at least duplicate experiments are abbreviated as follows and are shown in Table 5: A, IC50≦0.05 μM; B, 0.05 μM<IC50≦0.2 μM; C, 0.2 μM<IC50≦1 μM; D, IC50>1 μM; ND, not determined. The Example # of Table 5 corresponds to the compound example number as illustrated in the Examples section.
The Karpas-299 cell line has a t(2; 5) chromosomal translocation and expresses the NPM-ALK fusion protein, resulting in constitutively active ALK. […] Ther. 6(12):3314-22 (2007)]. With this “ALK-driven” cell line, the cell proliferation IC50 values can thus be used as surrogate for the p-ALK cell mechanistic IC50 values.

In another test the test system is MKN45 cells. Put plainly: MKN45 cell proliferation assay (CellTiter-Glo). The note with it: Homo sapiens, MKN-45, 72 h; MKN45 cell line; 3 days incubation; at least duplicate experiments; read-out: Prolif. IC50. On the procedure:
The effect of inhibitors on the proliferation of MKN45 cells was determined using the following protocol. MKN45 cells were plated in Corning 3917 96-well white tissue culture treated plates in growth medium (RPMI, 10% FCS) at a density of 5000 cells/well in a total volume of 135 μL and incubated at 37° C., 5% CO2, 95% humidity overnight. The following day, one-tenth volume of a 10× concentration of compounds was added to the wells in an 8-point dilution series. The dilution series was composed of an initial 1:5 dilution of a 10 mM stock of compound in DMSO, followed by serial 1:4 dilutions in DMSO, then a 1:20 dilution in growth medium prior to the 1:10 dilution into the cell plate. […] The typical dilution range is 10 μM to 0.6 nM. Once the compound was added to the cells, plates were incubated for 3 days at 37° C., 5% CO2 at 95% humidity. On the third day, after allowing all cells and reagents to come to room temperature, 25 μL of CellTiter-Glo reagent (Promega #G7573) was added to the wells. Plates were shaken on a platform for 10 minutes prior to reading luminescence for 0.1 seconds. The signal of the control wells was taken as 100% growth and growth inhibition was expressed as percent of control. IC50 values were determined from the percent of control data using a standard four-parameter model.
The IC50 values of exemplary compounds of the present invention determined in a cell proliferation assay using the MKN45 cell line according to the procedures described herein in at least duplicate experiments are abbreviated as follows and are shown in Table 2: A, IC50≦0.05 μM; B, 0.05 μM<IC50≦0.2 μM; C, 0.2 μM<IC50≦1 μM; D, IC50>1 μM; ND, not determined. The Example # of Table 2 corresponds to the compound example number as illustrated in the Examples section.
Treatment of this cell line with a selective c-MET inhibitor led to induction of apoptosis and inhibition of proliferation, whereas non-MET-amplified cell lines were not affected [Smolen et al., Proc. Natl. Acad. Sci. USA, 103(7):2316-2321 (2006)]. This cell line is thus “driven” by c-MET, and antiproliferative effects correlate very well with the inhibition of c-MET phosphorylation so that the cell proliferation IC50, values can be used as surrogate for the c-MET cell mechanistic IC50, values. Under the assay conditions described herein, the IC50 values correlate nearly 1:1.

The next test deals with T1, RON (Homo sapiens, UniProt Q04912).
T1 sequence (Q04912 913-1400): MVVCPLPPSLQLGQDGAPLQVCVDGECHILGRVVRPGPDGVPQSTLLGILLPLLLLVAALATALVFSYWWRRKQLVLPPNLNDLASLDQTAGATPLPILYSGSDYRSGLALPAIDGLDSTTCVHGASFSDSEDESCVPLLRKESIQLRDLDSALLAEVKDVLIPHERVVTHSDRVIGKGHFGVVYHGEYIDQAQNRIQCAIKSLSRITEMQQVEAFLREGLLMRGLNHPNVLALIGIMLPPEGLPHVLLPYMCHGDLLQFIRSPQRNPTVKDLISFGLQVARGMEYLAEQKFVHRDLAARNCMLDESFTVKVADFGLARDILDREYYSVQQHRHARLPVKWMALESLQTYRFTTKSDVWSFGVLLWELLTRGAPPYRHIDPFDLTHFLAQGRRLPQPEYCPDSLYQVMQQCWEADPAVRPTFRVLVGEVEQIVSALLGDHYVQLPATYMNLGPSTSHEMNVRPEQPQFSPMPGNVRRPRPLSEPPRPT
Put plainly: sfRON cell mechanistic assay (HeLa), phosphorylated RON ELISA. The note with it: HeLa cells transfected with sfRON; inhibition of phosphorylated RON; four hours incubation; at least duplicate experiments; read-out: sfRON mech IC50. On the procedure:
The cellular activity of the compounds of the present invention against RON may be determined by the following procedure. HeLa cells were plated in Falcon 3072 96-well plates in growth media (DMEM, 10% FBS, 1% L-glutamine) at a density of 10000 cells/well and incubated at 37° C., 5% CO2 overnight. The following day, cells were transfected with 0.2 μg sfRON-pcDNA plasmid DNA with 0.5 μL Lipofectamine-2000 per well in the presence of 50 μL OPTI-MEM, incubated at 37° C., 5% CO2 overnight. Costar 3915 96-well assay plates were coated with rabbit Anti-RON antibody at 2.0 μg/mL, sealed, and incubated overnight at 4° C. On the third day, coated plates were washed with PBS and blocked with 3% BSA. For the sfRON transfected cells, one-tenth volume of a 10× concentration of compounds was added to the wells in a 6-point dilution series. The dilution series was composed of an initial 1:5 dilution of a 10 mM DMSO stock solution of compound in DMSO, followed by a 1:10 dilution in growth media, for a final DMSO concentration on cells of 0.5%. Control wells were treated with 0.5% DMSO. The typical range of dilution was 10 μM to 3 nM. Once compound was added to the cells, plates were incubated for four hours at 37° C., 5% CO2. Plates were then washed in PBS, and lysed in triton-based lysis buffer. Lysates were transferred to the blocked capture plates. The phosphorylated RON levels were measured by incubating with a Goat polyclonal antibody against phosphorylated RON ([pYpY1238/1239]) followed by an anti-Goat antibody conjugated to HRP. Signal was measured on a Wallac Victor plate reader with luminance. The DMSO signal of the control wells was defined as 100% and the percent of inhibition of phosphorylated RON was expressed as percent of control. IC50 values were determined from the percent of control data using a standard four-parameter model.
The IC50 values of exemplary compounds of the present invention determined in a sfRON cell mechanistic assay using the HeLa cell line according to the procedures described herein in at least duplicate experiments are abbreviated as follows and are shown in Table 3: A, IC50≦0.2 μM; B, 0.2 μM<IC50≦1.0 μM; C, IC50>1 μM; ND, not determined. The Example # of Table 3 corresponds to the compound example number as illustrated in the Examples section.

`COc1ccc(F)c(Cl)c1[C@@H](C)c1c[nH]c2ncc(-c3cnn([C@H]4CC[C@@H](N5CCN(C(C)=O)CC5)CC4)c3C)cc12` [Example 57, 1-{4-[cis-4-(4-{3-[(1S)-1-(2-Chloro-3-fluoro-6-methoxyphenyl)ethyl]-1H-pyrrolo[2,3-b]pyridin-5-yl}-5-methyl-1H-pyrazol-1-yl)cyclohexyl]piperazin-1-yl}ethanone]: the results for the IC50 with Karpas-299 cells, in the test with MKN45 cells and at RON were 50 to 200 nM, not above 50 nM and more than 1000 nM, respectively.

For `COc1ccc(F)c(Cl)c1[C@@H](C)c1c[nH]c2ncc(-c3cnn([C@H]4CC[C@H](N)CC4)c3C)cc12` [Example 58, trans-4-(4-{3-[(1S)-1-(2-Chloro-3-fluoro-6-methoxyphenyl)ethyl]-1H-pyrrolo[2,3-b]pyridin-5-yl}-5-methyl-1H-pyrazol-1-yl)cyclohexanamine], the results for the IC50 with Karpas-299 cells, with MKN45 cells and at RON were not above 50 nM, not above 50 nM and 200 to 1000 nM, respectively.

As for `Cc1c(-c2cnc3[nH]cc([C@H](C)c4c(OC(F)F)ccc(F)c4Cl)c3c2)cnn1[C@H]1CC[C@@H](O)CC1` [Example 86, cis-4-[4-(3-{(1S)-1-[2-Chloro-6-(difluoromethoxy)-3-fluorophenyl]ethyl}-1H-pyrrolo[2,3-b]pyridin-5-yl)-5-methyl-1H-pyrazol-1-yl]cyclohexanol], the IC50 is not above 50 nM in the test on Karpas-299 cells, not above 50 nM with MKN45 cells and 200 to 1000 nM at RON.

Regarding `Cc1c(-c2cnc3[nH]cc([C@H](C)c4c(OC(F)F)ccc(F)c4Cl)c3c2)cnn1C[C@@H](O)CO` [Example 87, (2R)-3-[4-(3-{(1S)-1-[2-Chloro-6-(difluoromethoxy)-3-fluorophenyl]ethyl}-1H-pyrrolo[2,3-b]pyridin-5-yl)-5-methyl-1H-pyrazol-1-yl]propane-1,2-diol], the IC50 is not above 50 nM in the test with Karpas-299 cells, not above 50 nM in the test with MKN45 cells and not above 200 nM at RON.

Turning to `Cc1c(-c2cnc3[nH]cc([C@H](C)c4c(OC(F)F)ccc(F)c4Cl)c3c2)cnn1C1CCC(=O)CC1` [Example 88, 4-[4-(3-{(1S)-1-[2-Chloro-6-(difluoromethoxy)-3-fluorophenyl]ethyl}-1H-pyrrolo[2,3-b]pyridin-5-yl)-5-methyl-1H-pyrazol-1-yl]cyclohexanone], the IC50 with Karpas-299 cells is not above 50 nM; in the test on MKN45 cells, not above 50 nM; at RON it was 200 to 1000 nM.

In the case of `Cc1c(-c2cnc3[nH]cc([C@H](C)c4c(OC(F)F)ccc(F)c4Cl)c3c2)cnn1[C@H]1CC[C@H](N(C)CC(=O)O)CC1` [Example 89, N-{trans-4-[4-(3-{(1S)-1-[2-Chloro-6-(difluoromethoxy)-3-fluorophenyl]ethyl}-1H-pyrrolo[2,3-b]pyridin-5-yl)-5-methyl-1H-pyrazol-1-yl]cyclohexyl}-N-methylglycine], the IC50 with Karpas-299 cells was 50 to 200 nM; in the test with MKN45 cells it was not above 50 nM; on RON, more than 1000 nM.

In the case of `Cc1c(-c2cnc3[nH]cc([C@H](C)c4c(OC(F)F)ccc(F)c4Cl)c3c2)cnn1[C@H]1CC[C@@H](N(C)CC(=O)O)CC1` [Example 90, N-{cis-4-[4-(3-{(1S)-1-[2-Chloro-6-(difluoromethoxy)-3-fluorophenyl]ethyl}-1H-pyrrolo[2,3-b]pyridin-5-yl)-5-methyl-1H-pyrazol-1-yl]cyclohexyl}-N-methylglycine], the values for the concentration for half-maximal inhibition (IC50) in the test with Karpas-299 cells, in the test with MKN45 cells and at RON were 50 to 200 nM, 50 to 200 nM and more than 1000 nM, respectively.

For `Cc1c(-c2cnc3[nH]cc([C@H](C)c4c(OC(F)F)ccc(F)c4Cl)c3c2)cnn1[C@H]1CC[C@H](N2CCC[C@H]2C(=O)O)CC1` [Example 91, 1-{trans-4-[4-(3-{(1S)-1-[2-Chloro-6-(difluoromethoxy)-3-fluorophenyl]ethyl}-1H-pyrrolo[2,3-b]pyridin-5-yl)-5-methyl-1H-pyrazol-1-yl]cyclohexyl}-L-proline], the IC50 with Karpas-299 cells was 50 to 200 nM; with MKN45 cells, 50 to 200 nM; at RON, more than 1000 nM.

With `Cc1c(-c2cnc3[nH]cc([C@H](C)c4c(OC(F)F)ccc(F)c4Cl)c3c2)cnn1[C@H]1CC[C@@H](N2CCC[C@H]2C(=O)O)CC1` [Example 92, 1-{cis-4-[4-(3-{(1S)-1-[2-Chloro-6-(difluoromethoxy)-3-fluorophenyl]ethyl}-1H-pyrrolo[2,3-b]pyridin-5-yl)-5-methyl-1H-pyrazol-1-yl]cyclohexyl}-L-proline], the results for the IC50 in the test on Karpas-299 cells, with MKN45 cells and on RON were 200 to 1000 nM, 200 to 1000 nM and more than 1000 nM, respectively.
